Test results taken from ChEMBL document CHEMBL3526112, “Brain uptake of the drug of abuse γ-hydroxybutyric acid in rats” (Drug Metab Dispos, 2012).

Key:
[1] = tested on: Plasma; assay: Cmax in Sprague-Dawley rat plasma at 400 mg/kg, iv; assay type: ADME, organism-based; parameters: dose 400 mg/kg, route intravenous; conditions: in vivo
[2] = Tmax in Sprague-Dawley rat plasma at 400 mg/kg, iv; assay type: ADME, organism-based; parameters: dose 400 mg/kg, route intravenous
[3] = Tmax in Sprague-Dawley rat plasma at 600 mg/kg, iv; assay type: ADME, organism-based; parameters: dose 600 mg/kg, route intravenous
[4] = Tmax in Sprague-Dawley rat plasma at 800 mg/kg, iv; assay type: ADME, organism-based; parameters: dose 800 mg/kg, route intravenous
[5] = Cmax in Sprague-Dawley rat extracellular fluid of brain at 400 mg/kg, iv; assay type: ADME, organism-based; parameters: dose 400 mg/kg, route intravenous; conditions: in vivo
[6] = Cmax in Sprague-Dawley rat extracellular fluid of brain at 600 mg/kg, iv; assay type: ADME, organism-based; parameters: dose 600 mg/kg, route intravenous; conditions: in vivo
[7] = Cmax in Sprague-Dawley rat extracellular fluid of brain at 800 mg/kg, iv; assay type: ADME, organism-based; parameters: dose 800 mg/kg, route intravenous; conditions: in vivo
[8] = Tmax in Sprague-Dawley rat extracellular fluid of brain at 400 mg/kg, iv; assay type: ADME, organism-based; parameters: dose 400 mg/kg, route intravenous
[9] = Tmax in Sprague-Dawley rat extracellular fluid of brain at 600 mg/kg, iv; assay type: ADME, organism-based; parameters: dose 600 mg/kg, route intravenous
[10] = Tmax in Sprague-Dawley rat extracellular fluid of brain at 800 mg/kg, iv; assay type: ADME, organism-based; parameters: dose 800 mg/kg, route intravenous
[11] = tested on: Plasma; assay: AUC in Sprague-Dawley rat plasma at 400 mg/kg, iv; assay type: ADME, organism-based; parameters: dose 400 mg/kg, route intravenous; conditions: in vivo
[12] = tested on: Plasma; assay: AUC in Sprague-Dawley rat plasma at 600 mg/kg, iv; assay type: ADME, organism-based; parameters: dose 600 mg/kg, route intravenous; conditions: in vivo
[13] = tested on: Plasma; assay: AUC in Sprague-Dawley rat plasma at 800 mg/kg, iv; assay type: ADME, organism-based; parameters: dose 800 mg/kg, route intravenous; conditions: in vivo
[14] = tested on: Brain; assay: AUC in Sprague-Dawley rat extracellular fluid of brain at 400 mg/kg, iv; assay type: ADME, organism-based; parameters: dose 400 mg/kg, route intravenous; conditions: in vivo
[15] = tested on: Brain; assay: AUC in Sprague-Dawley rat extracellular fluid of brain at 600 mg/kg, iv; assay type: ADME, organism-based; parameters: dose 600 mg/kg, route intravenous; conditions: in vivo
[16] = tested on: Brain; assay: AUC in Sprague-Dawley rat extracellular fluid of brain at 800 mg/kg, iv; assay type: ADME, organism-based; parameters: dose 800 mg/kg, route intravenous; conditions: in vivo
[17] = Ratio of extracellular fluid of brain AUC to plasma AUC in Sprague-Dawley rat at 400 mg/kg, iv; assay type: ADME, organism-based; parameters: dose 400 mg/kg, route intravenous; conditions: read-out: Ratio AUC
[18] = Ratio of extracellular fluid of brain AUC to plasma AUC in Sprague-Dawley rat at 600 mg/kg, iv; assay type: ADME, organism-based; parameters: dose 600 mg/kg, route intravenous; conditions: read-out: Ratio AUC
[19] = Ratio of extracellular fluid of brain AUC to plasma AUC in Sprague-Dawley rat at 800 mg/kg, iv; assay type: ADME, organism-based; parameters: dose 800 mg/kg, route intravenous; conditions: read-out: Ratio AUC
[20] = Renal clearance in Sprague-Dawley rat at 400 mg/kg, iv; assay type: ADME, organism-based, Kidney; parameters: dose 400 mg/kg, route intravenous; conditions: in vivo
[21] = Renal clearance in Sprague-Dawley rat at 600 mg/kg, iv; assay type: ADME, organism-based, Kidney; parameters: dose 600 mg/kg, route intravenous; conditions: in vivo
[22] = Renal clearance in Sprague-Dawley rat at 800 mg/kg, iv; assay type: ADME, organism-based, Kidney; parameters: dose 800 mg/kg, route intravenous; conditions: in vivo
[23] = tested on: Rattus norvegicus; assay: Increase of sleep time in Sprague-Dawley rat at 400 mg/kg, iv; assay type: functional
[24] = tested on: Rattus norvegicus; assay: Increase of sleep time in Sprague-Dawley rat at 600 mg/kg, iv; assay type: functional
[25] = tested on: Rattus norvegicus; assay: Increase of sleep time in Sprague-Dawley rat at 800 mg/kg, iv; assay type: functional
[26] = tested on: Rattus norvegicus; assay: Increase of sleep time in iv dosed Sprague-Dawley rat; assay type: functional, organism-based
[27] = Drug uptake in rat RBE4 cells at 58 nM at pH 7.4 after 15 to 30 seconds by liquid scintillation counting; assay type: ADME, cell-based; conditions: rbe4, pH 7.4, 0.058 µM
[28] = Drug uptake in human hCMEC/D3 cells at 58 nM at pH 7.4 after 15 to 30 seconds by liquid scintillation counting; assay type: ADME, cell-based; conditions: hcmec/d3, pH 7.4, 0.058 µM
[29] = Drug uptake in rat RBE4 cells at pH 7.4 up to 10 mins by Michaelis-Menten analysis; assay type: ADME, cell-based
[30] = Drug uptake in human hCMEC/D3 cells at pH 7.4 up to 10 mins by Michaelis-Menten analysis; assay type: ADME, cell-based
[31] = Drug uptake in rat RBE4 cells at 10 mM at pH 6.5 up to 10 mins by Michaelis-Menten analysis relative to at pH 7.4; assay type: ADME, cell-based; conditions: rbe4, pH 6.5, 10 min, 10000 µM
[32] = Drug uptake in human hCMEC/D3 cells at 10 mM at pH 6.5 up to 10 mins by Michaelis-Menten analysis relative to at pH 7.4; assay type: ADME, cell-based; conditions: hcmec/d3, pH 6.5, 10 min, 10000 µM
[33] = tested on: Plasma; assay: Cmax in Sprague-Dawley rat plasma at 400 mg/kg, iv after 30 to 180 mins; assay type: ADME, organism-based; parameters: dose 400 mg/kg, route intravenous; conditions: in vivo
[34] = tested on: Plasma; assay: Cmax in Sprague-Dawley rat plasma at 600 mg/kg, iv after 30 to 180 mins; assay type: ADME, organism-based; parameters: dose 600 mg/kg, route intravenous; conditions: in vivo
[35] = tested on: Plasma; assay: Cmax in Sprague-Dawley rat plasma at 800 mg/kg, iv after 30 to 180 mins; assay type: ADME, organism-based; parameters: dose 800 mg/kg, route intravenous; conditions: in vivo
[36] = Dissociation constant, pKa of the compound; assay type: physicochemical
[37] = Drug recovery in Sprague-Dawley rat brain frontal cortex at 400 to 800 mg/kg, iv by microdialysis; assay type: ADME, organism-based; parameters: dose 400-800 mg/kg, route intravenous; conditions: in vivo

O=C([O-])CCCO.[Na+] [SODIUM OXYBATE]
Cmax [1]: 8400 µM | Tmax [2]: 5 min | Tmax [3]: 5 min | Tmax [4]: 5 min | Cmax [5]: 390 µM | Cmax [6]: 550 µM | Cmax [7]: 660 µM | Tmax [8]: 50 min | Tmax [9]: 50 min | Tmax [10]: 50 min | AUC [11]: 66 mg·min/mL | AUC [12]: 124 mg·min/mL | AUC [13]: 145 mg·min/mL | AUC [14]: 4.9 mg·min/mL | AUC [15]: 8.7 mg·min/mL | AUC [16]: 11.2 mg·min/mL | Kp [17]: 0.079 | Kp [18]: 0.07 | Kp [19]: 0.07 | CL renal [20]: 1.55 mL/min/kg | CL renal [21]: 1.41 mL/min/kg | CL renal [22]: 2.18 mL/min/kg | Time [23]: 90.4 min | Time [24]: 138 min | Time [25]: 171 min | Activity [26]: Dose-dependent effect | Drug uptake [27]: Active | Drug uptake [28]: Active | Km at 10 min ([29]; RBE4 cells, pH 7.4): 23.3 mM | Vmax ([29]; rbe4, pH 7.4, 10 min): 258 pmol/mg/min | Km at 10 min ([30]; hCMEC/D3 cells, pH 7.4): 18.1 mM | Vmax ([30]; hcmec/d3, pH 7.4, 10 min): 248 pmol/mg/min | Drug uptake [31]: 126% | Drug uptake [32]: 126% | Cmax [33]: 600 µM | Cmax [34]: 2400 µM | Cmax [35]: 3400 µM | pKa [36]: 4.72 | Drug recovery [37]: 32.5%
